Article PMC3038857, “Using Nuclear Receptor Activity to Stratify Hepatocarcinogens” (PLoS ONE, 2011)

Assays:
PXR (NR1I2) [1] = target: T1, PXR (NR1I2) (Homo sapiens, UniProt O75469); experiment: ATG_PXRE_CIS: Factorial reporter gene assay (HepG2); assay type: cell-based; parameters: endogenous in cells; host or cells: HepG2; conditions: HepG2
T1 sequence (O75469 1-434): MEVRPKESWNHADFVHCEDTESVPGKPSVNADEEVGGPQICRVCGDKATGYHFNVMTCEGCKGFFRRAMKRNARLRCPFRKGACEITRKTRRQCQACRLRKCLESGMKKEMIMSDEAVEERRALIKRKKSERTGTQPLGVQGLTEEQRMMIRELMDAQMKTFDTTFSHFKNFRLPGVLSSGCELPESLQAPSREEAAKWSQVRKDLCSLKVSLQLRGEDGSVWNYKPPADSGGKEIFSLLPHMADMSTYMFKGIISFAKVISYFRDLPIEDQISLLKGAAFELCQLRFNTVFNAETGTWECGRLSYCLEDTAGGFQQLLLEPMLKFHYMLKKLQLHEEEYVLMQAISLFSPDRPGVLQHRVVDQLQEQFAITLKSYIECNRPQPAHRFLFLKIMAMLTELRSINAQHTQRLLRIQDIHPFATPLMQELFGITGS
Procedure, shortened: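 Mammalian one-hybrid trans reporters (25 MRTUs) measured ERRg, FXR and PPARg; PXRE used cis reporters from a 48-site MRTU library. Both were run in HepG2. Dosing: seven concentrations, MTC as the highest, three-fold dilution series.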

Mouse Liver [2] = conditions: mouse, chronic study, ref ToxRefDB; cited from earlier work
PXR Human (NR1I2) = target: T2, PXR Human (NR1I2) (Homo sapiens, UniProt O75469); experiment: NCGC_PXR_Agonist_human: GAL4 BLAM Reporter gene assay: PXR Human; assay type: cell-based; conditions: agonist mode
T2 sequence (O75469 146-434 limits assumed): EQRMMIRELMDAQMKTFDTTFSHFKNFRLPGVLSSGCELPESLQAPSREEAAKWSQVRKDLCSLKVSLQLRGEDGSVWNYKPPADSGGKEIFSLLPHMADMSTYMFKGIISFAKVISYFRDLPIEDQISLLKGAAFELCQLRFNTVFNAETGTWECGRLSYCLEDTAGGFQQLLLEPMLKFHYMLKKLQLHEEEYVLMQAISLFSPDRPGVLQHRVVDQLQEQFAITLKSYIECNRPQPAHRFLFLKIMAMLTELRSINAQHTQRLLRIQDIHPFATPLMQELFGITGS
Experimental: These assays measure binding constants and enzyme inhibition values for nuclear receptors. The targets include [drawing 67] , [drawing 68] , [drawing 69] , [drawing 70] , [drawing 71] , [drawing 72] , [drawing 73] , [drawing 74] , [drawing 75] and [drawing 76] . Each of the nuclear receptor targets was measured in agonist mode. Assays were run at the NIH Chemical Genomics Center (Rockville, MD).
Cell-based HTS Assays: These assays measuring binding constants and enzyme inhibition values for nuclear receptors. The targets include AR, ER, FXR, LXR, PPARα, PPARδ, PPARγ, RXRα, RXRβ and PXR. Each of the nuclear receptor targets was measured in both agonist and antagonist mode, but the antagonist data is still undergoing analysis due to possible interference between cytotoxicity and assay activity, so antagonist mode data were not used in the present analysis. Assays were run at the NIH Chemical Genomics Center (Rockville, MD) as part of the Tox21 collaboration. […] The R^2 was required to be ≥0.5. Values where only the highest concentration exceeded 50% activity were excluded to eliminate weak or false positives. Detailed description of the methods, data and analysis methods for this dataset will be presented in a separate publication.

CYP1A2 = experiment: CLZD_CYP1A2: Change in expression of CYP1A2 (primary human hepatocytes); assay type: cell-based; conditions: 24 hr
Procedure, shortened: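 Five-point concentration series (0.004-40 µM) applied to primary human hepatocytes; 6/24/48 hr timepoints; transcript quantified by multiplexed nuclease protection.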

CYP1A1 = experiment: CLZD_CYP1A1: Change in expression of CYP1A1 (primary human hepatocytes); assay type: cell-based; conditions: 24 hr
Procedure, shortened: (§1)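 Read-out: mRNA change by multiplexed quantitative nuclease protection assay. Primary human hepatocytes; 5 concentrations, 0.004-40 µM; exposures 6, 24, 48 hr.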

CYP3A4 = experiment: CLZD_CYP3A4: Change in expression of CYP3A4 (primary human hepatocytes); assay type: cell-based; conditions: 24 hr
Procedure, shortened: as §1

CYP2B6 = experiment: CLZD_CYP2B6: Change in expression of CYP2B6 (primary human hepatocytes); assay type: cell-based; conditions: 24 hr
Procedure, shortened: as §1

Mouse Liver [3] = conditions: mouse, chronic study, ref ToxRefDB; cited from earlier work; remark: listed apart in the source
[4] = target: T3, ESR1 (estrogen receptor 1) (Homo sapiens, UniProt P03372); experiment: ATG_ERa_TRANS: Factorial reporter gene assay (HepG2); assay type: cell-based; conditions: HepG2
T3 construct: expressed in transfected cells; host or cells: HepG2
Experimental: (§2) A multiple reporter transcription unit (MRTU) library consisting of 48 transcription factor binding sites was transfected into the HepG2 human liver hepatoma cell line. In addition to the cis-acting reporter genes (CIS), a modification of the approach was used to generate a trans-system (TRANS) with a mammalian one-hybrid assay consisting of an additional 25 MRTU library reporting the activity of nuclear receptor super-family members. […] These assays were performed by Attagene Inc. (Morrisville NC) under contract to EPA.
(§3) In addition to the cis-acting reporter genes (CIS), a modification of the approach was used to generate a trans-system (TRANS) with a mammalian one-hybrid assay consisting of an additional 25 MRTU library reporting the activity of nuclear receptor super-family members. […] Chemicals were then tested in the CIS and TRANS assays at seven concentrations starting at the MTC and followed by three-fold serial dilutions. These assays were performed by Attagene Inc. (Morrisville NC) under contract to EPA. Detailed description of the methods, data and analysis methods for this dataset will be presented in a separate publication.

PXR (NR1I2) [5] = target: T1, PXR (NR1I2); experiment: ATG_PXR_TRANS: Factorial reporter gene assay (HepG2); assay type: cell-based; parameters: endogenous in cells; host or cells: HepG2; conditions: HepG2
Procedure, shortened: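 HepG2 cells transfected with multiplexed reporter libraries: cis-acting binding-site reporters (CIS) and a one-hybrid nuclear-receptor trans system (TRANS). Chemicals tested at seven concentrations, starting at the maximum tolerated concentration with three-fold serial dilutions.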

Rat Liver [6] = conditions: rat, chronic study, ref ToxRefDB; cited from earlier work
Rat Liver [7] = conditions: rat, chronic study, ref ToxRefDB; cited from earlier work; remark: listed apart in the source
Mouse Liver [8] = conditions: mouse, chronic study, ref ToxRefDB; cited from earlier work; remark: listed apart in the source
[9] = target: T4, AHR (aryl hydrocarbon receptor) (Homo sapiens, UniProt P35869); experiment: ATG_Ahr_CIS: Factorial reporter gene assay (multiplexed transcription reporter, HepG2); assay type: cell-based; conditions: HepG2
T4 construct: endogenous in cells; host or cells: HepG2
T4 sequence (P35869 11-848): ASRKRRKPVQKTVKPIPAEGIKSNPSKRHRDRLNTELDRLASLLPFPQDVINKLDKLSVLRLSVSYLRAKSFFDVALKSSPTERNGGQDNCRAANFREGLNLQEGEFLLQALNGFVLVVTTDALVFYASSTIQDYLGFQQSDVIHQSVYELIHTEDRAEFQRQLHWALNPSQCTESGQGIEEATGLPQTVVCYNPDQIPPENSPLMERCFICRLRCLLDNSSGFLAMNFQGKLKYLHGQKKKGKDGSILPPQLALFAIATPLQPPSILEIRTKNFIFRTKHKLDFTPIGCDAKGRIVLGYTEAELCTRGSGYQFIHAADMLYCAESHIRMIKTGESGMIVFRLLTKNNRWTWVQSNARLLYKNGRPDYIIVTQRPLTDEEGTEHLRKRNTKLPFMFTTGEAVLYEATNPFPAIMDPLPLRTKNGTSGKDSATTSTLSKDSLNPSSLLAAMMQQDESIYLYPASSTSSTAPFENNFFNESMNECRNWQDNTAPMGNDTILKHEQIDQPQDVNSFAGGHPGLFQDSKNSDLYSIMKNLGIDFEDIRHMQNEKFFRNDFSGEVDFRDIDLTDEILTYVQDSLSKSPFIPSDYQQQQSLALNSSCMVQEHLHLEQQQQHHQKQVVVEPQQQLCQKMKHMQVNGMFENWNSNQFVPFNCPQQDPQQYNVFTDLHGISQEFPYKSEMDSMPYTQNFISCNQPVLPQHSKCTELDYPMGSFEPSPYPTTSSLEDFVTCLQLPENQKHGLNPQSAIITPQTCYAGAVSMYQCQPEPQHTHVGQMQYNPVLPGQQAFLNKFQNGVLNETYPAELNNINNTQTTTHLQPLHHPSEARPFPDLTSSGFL
Experimental: as §2, §3

Rat Liver [10] = conditions: rat, chronic study, ref ToxRefDB; cited from earlier work; remark: listed apart in the source
PXR (NR1I2) [11] = target: T1, PXR (NR1I2); experiment: NVS_NR_hPXR: Human PXR Fluormone PXR (SXR) green (cell-free HTS); assay type: binding
Procedure, shortened: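 Responses were normalized to same-plate solvent controls as percent of neutral control. AC50 values came from Hill-equation fits of concentration-response curves.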

T3 sequence (P03372 whole entry): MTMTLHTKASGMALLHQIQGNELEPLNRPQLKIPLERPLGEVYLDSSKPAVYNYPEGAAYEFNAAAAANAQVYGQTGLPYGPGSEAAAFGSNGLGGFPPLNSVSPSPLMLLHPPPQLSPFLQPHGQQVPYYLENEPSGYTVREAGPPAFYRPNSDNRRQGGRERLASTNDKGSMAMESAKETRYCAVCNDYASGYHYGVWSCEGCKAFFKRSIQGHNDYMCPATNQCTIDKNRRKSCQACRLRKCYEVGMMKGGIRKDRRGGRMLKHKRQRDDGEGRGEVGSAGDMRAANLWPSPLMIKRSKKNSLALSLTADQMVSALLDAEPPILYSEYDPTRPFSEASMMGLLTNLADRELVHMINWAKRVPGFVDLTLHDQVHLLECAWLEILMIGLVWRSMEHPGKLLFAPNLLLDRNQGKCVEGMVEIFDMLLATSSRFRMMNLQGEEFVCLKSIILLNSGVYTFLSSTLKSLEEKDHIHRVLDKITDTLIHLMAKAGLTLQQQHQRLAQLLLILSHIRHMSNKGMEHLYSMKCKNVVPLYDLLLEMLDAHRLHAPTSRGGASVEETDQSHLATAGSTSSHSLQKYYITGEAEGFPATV

## CCOc1cc(Oc2ccc(C(F)(F)F)cc2Cl)ccc1[N+](=O)[O-] [r233]
PXR (NR1I2) [1]
  ATG_PXRE_CIS: 4.432
Mouse Liver [2]
  CHR_Mouse_Liver_1_AnyLesion: 6
PXR Human (NR1I2)
  NCGC_PXR_Agonist_human: 4.683
CYP1A2
  CLZD_CYP1A2_24: 5.409
CYP1A1
  CLZD_CYP1A1_24: 5.52
CYP3A4
  CLZD_CYP3A4_24: 5.072
CYP2B6
  CLZD_CYP2B6_24: 5.028
Mouse Liver [3]
  CHR_Mouse_Liver_2_PreneoplasticLesion: 6
[4]
  ATG_ERa_TRANS: 5.102
PXR (NR1I2) [5]
  ATG_PXR_TRANS: 4.699

## CC1(C)C(C=C(Cl)Cl)C1C(=O)OCc1cccc(Oc2ccccc2)c1 (stereo not shown) [r242]
PXR (NR1I2) [1]
  ATG_PXRE_CIS: 4.959
Mouse Liver [2]
  CHR_Mouse_Liver_1_AnyLesion: 6
Rat Liver [6]
  CHR_Rat_Liver_1_AnyLesion: 6
Rat Liver [7]
  CHR_Rat_Liver_3_NeoplasticLesion: 0
CYP3A4
  CLZD_CYP3A4_24: 5.668
Mouse Liver [8]
  CHR_Mouse_Liver_3_NeoplasticLesion: 6
CYP2B6
  CLZD_CYP2B6_24: 4.991
[9]
  ATG_Ahr_CIS: 4.125
Mouse Liver [3]
  CHR_Mouse_Liver_2_PreneoplasticLesion: 6
Rat Liver [10]
  CHR_Rat_Liver_2_PreneoplasticLesion: 0
[4]
  ATG_ERa_TRANS: 4.523
PXR (NR1I2) [11]
  NVS_NR_hPXR: 4.444
